By Ki is commonly meant the dissociation constant of the complex between target and ligand, obtained from inhibition or displacement.

Where two headings read alike, the source gives them in different places.

This is an account of results in patent US6127337A, “Bivalent thrombin inhibitors” (National Research Council of Canada, priority 1993, dated 2000).

For assay [1], the system named is carotid injury-induced thrombosis. In words: FeCl3 induced arterial injury model (carotid injury-induced thrombosis). To be noted: rat; for Dose to double occlusion time: control occlusion time 19 ± 1 min; for Dose to achieve patency at 60 min.: patency defined by no drop in vessel temperature. The class given is in vivo. As for the experimental part:
[…]: Rat, male, Sprague-Dawley. Weight: 375-450 g The FeCl3 induced arterial injury model assays were conducted according to Kurz, K. D., Main, […]., Thrombosis research 60; 269-280, 1990 and Schumacher, W. A. et al. J. pharmacology and experimental therapeutics 267; 1237-1242, 1993. Male, Sprague-Dawley (375-450 g) are anesthetized with Urethane (1500 mg/kg IP). Animals are laid on a heating pad which is maintained at 37° C. The carotid artery is approached through a midline cervical incision. Carefully blunt dissection is used to expose and isolate the vessel from the carotid sheath. Using forceps, the artery is lifted to provide clearance to insert two small polyethylene tubing (PE-205) underneath it. The temperature probe (Physitemp MT23/3 )TM is placed between the PE-205 and the artery. The vessel temperature is monitored for 60 minutes after application of FeCl3. Vessel temperature changes are recorded on a thermister (Cole-Palmer Model 08533-41). Injury is induced by application of a small disc (3 mm dia.) of WhatmanTM No.1 filter paper previously dipped in a 35% solution of FeCl3 on the carotid artery above the temperature probe. The site of the experiment is covered with in Aluminum foil in order to protect the FeCl3 from degradation by light. […] Before the start of the experiment, one blood sample is drawn (1 ml) in a tube of 0.105M buffered citrate solution (from the eye's sinus) and the animal is exsanguinated at the end. All the samples are kept on ice and centrifuged as soon as possible at 2000 Rpm for 10 min., 4° C. The plasma is analyzed in duplicate for activated partial thromboplastin time on a haemostasis analyzer (STAGO ST4TM). From a group of four animals, two arteries are stored at -80C for further analysis.

Assay [2] addresses T1, human thrombin (Homo sapiens, UniProt P00734).
T1 construct: Human α-thrombin (3,000 NIH units/mg); purchased Sigma
Put plainly: Inhibition of amidolytic activity of human thrombin (fluorogenic, Tos-Gly-Pro-Arg-AMC), Ki. The class given is biochemical. As for the experimental part:
Materials. The chromogenic and fluorogenic substrates Tosyl-Gly-Pro-Arg-pNAand Tos-Gly-Pro-Arg-AMC were purchased from Boehringer Manheim and Sigma, respectively. […] Initial velocities were recorded at several inhibitor concentrations and kinetic parameters were determined by fitting the data to a general equation describing enzyme inhibition (Segel, 1975). The data were analyzed using the non-linear regression program RNLIN in the IMSL library (IMSL, 1987) on a microVAX™ 3500 computer. […] Fluorogenic assays were conducted using the same conditions and instrument as above operating in the fluorescence mode in the ratio (λex =383 nm, λem =455 nm) Fluorescence intensities were calibrated with 7-amino-4-methyl coumarin solution of known concentration
Determination of Thrombin Inhibitory Dissociation Constants KI
The steady-state velocity was then measured for a few minutes. The compounds of this invention were also pre-incubated with thrombin for 20 min at room temperature before adding the substrate. […] The kinetic data (the steady-state velocity at various concentrations of the substrate and the inhibitors) of the competitive inhibition was analyzed using the methods described by Segel (1975). A non-linear regression program, RNLIN in the IMSL library (IMSL, 1987), LMDER in MINPACK library (More et al., 1980) or Microsoft™ Excell™, was used to estimate the kinetic parameters (Km Vmax and Ki). The biological data are reported on tables I-V.

[3] abbreviates: Table IV, no assay number given, read-out: Ki.
Setting [4] is: FIG. 1 Dixon plot, human α-thrombin 0.033 NIH unit/mL, pH 7.8, 25° C., read-out: Ki.
The mark [5] stands for this setting: Table II, various active site inhibitor segments, human thrombin 3.0×10^-11 M, read-out: Ki.
Setting [6] is: Table III, various linker segments, human thrombin 3.0×10^-11 M, read-out: Ki.

Regarding “4-tert-Butyl-benzene sulfonyl-Arg-(D-Pipecolic acid)-(12-aminododecanoic acid)-4-aminobutyric acid)-Asp-Phe-Glu-Glu-Ile-Pro-Glu-Glu-Tyr-Leu-Gln-OH [Peptide P552]”, in assay [1], the “Dose to double occlusion time” value was 0.5 mg/kg i.v. bolus and the “Dose to achieve patency at 60 min.” value is listed as not below 2 mg/kg i.v. bolus.
Consider “4-tert-butylbenzenesulfonyl-Arg-(D-pipecolic acid)-(12-aminododecanoic acid)-4-aminobutyric acid)-Asp-Tyr-Glu-Pro-Ile-Pro-Glu-Glu-Ala-(L-β-cyclohexylalanine)-(D- Glu)-OH [Peptide P553]”, for which, in assay [2] (setting [3]), the inhibitory constant (Ki) is 0.003 ± 0.0004 nM. Besides, in assay [1], the “Dose to double occlusion time” value is given as 0.25 mg/kg i.v. bolus and the “Dose to achieve patency at 60 min.” value is on record as 0.5-1 mg/kg i.v. bolus.
Regarding `CC[C@H](C)[C@H](NC(=O)[C@H](CCC(=O)O)NC(=O)[C@H](CCC(=O)O)NC(=O)[C@H](Cc1ccccc1)NC(=O)[C@H](CC(=O)O)NC(=O)CCCCNC(=O)CNC(=O)CNC(=O)CCNC(=O)[C@H]1CCCCN1C(=O)[C@H](CCCNC(=N)N)NS(=O)(=O)c1cccc2c(N(C)C)cccc12)C(=O)N1CCC[C@H]1C(=O)N[C@@H](CCC(=O)O)C(=O)N[C@@H](CCC(=O)O)C(=O)N[C@@H](Cc1ccc(O)cc1)C(=O)N[C@@H](CC(C)C)C(=O)N[C@@H](CCC(N)=O)C(=O)O` [Peptide P498], the Ki was 0.131 ± 0.022 nM in assay [2] (setting [4]) and less than 1 nM in assay [2] (read-out: Ki value).
With “(D-Phe)-Arg-(D-Pipecolic acid)(12-aminododecanoic acid)-4-aminobutyric acid)-Asp-Phe-Glu-Glu-Ile-Pro-Glu-Glu-Tyr-Leu-Gln-OH [Peptide P483]”, the Ki in assay [2] (setting [5]) is 54.9 ± 6.6 nM.
Same read-out and setting: with “(D-β-cyclohexylalanine)-Arg-(D-Pipecolic acid)-(12-aminododecanoic acid)-4-aminobutyric acid)-Asp-Phe-Glu-Glu-Ile-Pro-Glu-Glu-Tyr-Leu-Gln-OH [Peptide P481]” the figure was 9.51 ± 0.16 nM.
As for “benzyl sulfonyl-Arg-(D-Pipecolic acid)-(12-aminododecanoic acid)-4-aminobutyric acid)-Asp-Phe-Glu-Glu-Ile-Pro-Glu-Glu-Tyr-Leu-Gln-OH [Peptide P556]”, the Ki in assay [2] (setting [5]) is 0.137 ± 0.026 nM; in assay [2] (read-out: Ki value), less than 1 nM.
Turning to “dansyl-(D-Arg)-(D-Pipecolic acid)-(12-aminododecanoic acid)-4-aminobutyric acid)-Asp-Phe-Glu-Glu-Ile-Pro-Glu-Glu-Tyr-Leu-Gln-OH [Peptide P492]”, in assay [2] (setting [5]), the Ki stood at 1.02 ± 0.38 nM.
Same read-out and setting: with “dansyl-Arg-1,2,3,4-tetrahydroisoquinoline-3-carboxylic acid-(12-aminododecanoic acid)-4-aminobutyric acid)-Asp-Phe-Glu-Glu-Ile-Pro-Glu-Glu-Tyr-Leu-Gln-OH (RXXXDFEEIPEEYLQ; dansyl-Arg-Tic-aminododecanoic-aminobutyric N-terminal extension) [Peptide P471]” the figure was 0.285 ± 0.04 nM; with “dansyl-Arg-(D)1-amino cyclohexane carboxylic acid-(12-aminododecanoic acid)-4-aminobutyric acid)-Asp-Phe-Glu-Glu-Ile-Pro-Glu-Glu-Tyr-Leu-Gln-OH [Peptide P473]”, 36.3 ± 10.3 nM.
Take “dansyl-Arg-(D-Pipecolic acid)-(4-aminobutyric acid)-glycyl)-Asp-Phe-Glu-Glu-Ile-Pro-Glu-Glu-Tyr-Leu-Gln-OH [Peptide P514]”: the Ki in assay [2] (setting [6]) stood at 6800 ± 1640 nM.
On the same count and under the same terms, the same measure for “dansyl-Arg-(D-Pipecolic acid)-(7-aminoheptanoic acid)-glycyl)-Asp-Phe-Glu-Glu-Ile-Pro-Glu-Glu-Tyr-Leu-Gln-OH (RXXGDFEEIPEEYLQ; dansyl, D-pipecolic acid, aminoheptanoic acid-glycyl linker) [Peptide P524]”: 1480 ± 170 nM.
On to “dansyl-Arg-(D-Pipecolic acid)-(8-aminocaproicacid)-4-aminobutyric acid)-Asp-Phe-Glu-Glu-Ile-Pro-Glu-Glu-Tyr-Leu-Gln-OH [Peptide P528]”, for which the Ki was 0.521 ± 0.086 nM in assay [2] (setting [6]) and less than 1 nM in assay [2] (read-out: Ki value).
With “dansyl-Arg-(D-pipecolic acid)-(12-aminododecanoic acid)-4-aminobutyric acid)-Asp-Phe-Glu-Glu-Ile-Pro-Glu-Glu-Tyr-Leu-Gln-OH [Peptide P448]”, the Ki in assay [2] (setting [4]) was found to be 0.017 ± 0.0042 nM. In assay [1], the “Dose to double occlusion time” value was determined as 1.0 mg/kg i.v. bolus and the “Dose to achieve patency at 60 min.” value is recorded as more than 2 mg/kg i.v. bolus.
As for “dansyl-Arg-(D-pipecolic acid)-(12-aminododecanoic acid)-4-aminobutyric acid)-Asp-Tyr-Glu-Pro-Ile-Pro-Glu-Glu-Ala-(L-β-cyclohexylalanine)-(D- Glu)-OH [Peptide P535]”, the Ki in assay [2] (Table IV, results from assay no. 1, read-out: Ki) worked out at 0.00123 ± 0.00026 nM; in assay [2] (Table IV, results from assay no. 2, read-out: Ki), 0.002 ± 0.0004 nM.
Take “dansyl-Arg-(D-β-cyclohexylalanine)-(12-aminododecanoic acid)-4-aminobutyric acid)-Asp-Phe-Glu-Glu-Ile-Pro-Glu-Glu-Tyr-Leu-Gln-OH [Peptide P472]”: the Ki in assay [2] (setting [5]) is 17.1 ± 3.1 nM.
“dansyl-Arg-(L-Pip)-(4-aminobutyric acid-glycyl)-Asp-Phe-Glu-Glu-Ile-Pro-Glu-Glu-Tyr-Leu-Gln-OH [Peptide P409]”: in assay [2] (Table III, various linker segments, human thrombin 3.0×10^-11 M), the Ki entry is listed as “no inhibition”.
Turning to “dansyl-Arg-(L-pipecolic acid)-(12-aminododecanoic acid)-4-aminobutyric acid)-Asp-Phe-Glu-Glu-Ile-Pro-Glu-Glu-Tyr-Leu-Gln-OH [Peptide P447]”, the Ki in assay [2] (setting [5]) turned out to be 12.4 ± 1.8 nM.
Still for that read-out and setting: with “dansyl-Cha-(D-Pipecolic acid)-(12-aminododecanoic acid)-4-aminobutyric acid)-Asp-Phe-Glu-Glu-Ile-Pro-Glu-Glu-Tyr-Leu-Gln-OH [Peptide P477]” the figure was 5.85 ± 0.098 nM; with “dansyl-Nle-(D-Pipecolic acid)-(12-aminododecanoic acid)-4-aminobutyric acid)-Asp-Phe-Glu-Glu-Ile-Pro-Glu-Glu-Tyr-Leu-Gln-OH [Peptide P493]”, 5.2 ± 1.31 nM; with “dansyl-Phe-(D-Pipecolic acid)-(12-aminododecanoic acid)-4-aminobutyric acid)-Asp-Phe-Glu-Glu-Ile-Pro-Glu-Glu-Tyr-Leu-Gln-OH [Peptide P476]”, 2.62 ± 0.2 nM.
With “fmoc-Arg-(D-Pipecolic acid)(12-aminododecanoic acid)-4-aminobutyric acid)-Asp-Phe-Glu-Glu-Ile-Pro-Glu-Glu-Tyr-Leu-Gln-OH [Peptide P484]”, the Ki in assay [2] (setting [5]) stood at 14.8 ± 1.2 nM.
Regarding “α-naphthyl sulfonyl-Arg-(D-Pipecolic acid)-(12-aminododecanoic acid)-4-aminobutyric acid)-Asp-Phe-Glu-Glu-Ile-Pro-Glu-Glu-Tyr-Leu-Gln-OH [Peptide P531]”, the Ki in assay [2] (setting [5]) came out at 0.032 ± 0.001 nM. Also, in assay [1], the “Dose to double occlusion time” value was 0.5 mg/kg i.v. bolus and the “Dose to achieve patency at 60 min.” value is more than 2 mg/kg i.v. bolus.
Regarding “α-naphthyl sulfonyl-arginyl D-pipecolic acid-(12-aminododecanoic acid)-4-aminobutyric acid)-Asp-Tyr-Glu-Pro-Ile-Pro-Glu-Glu-Ala-(L-β-cyclohexylalanine)-(D- Glu)-OH [Peptide P581]”, the Ki in assay [2] (setting [3]) was 0.0145 ± 0.0009 nM. Further, in assay [1], the “Dose to double occlusion time” value is given as 0.5 mg/kg i.v. bolus and the “Dose to achieve patency at 60 min.” value is given as 1 mg/kg i.v. bolus.
With “β-naphthyl sulfonyl-Arg-(D-Pipecolic acid)-(12-aminododecanoic acid)-4-aminobutyric acid)-Asp-Phe-Glu-Glu-Ile-Pro-Glu-Glu-Tyr-Leu-Gln-OH [Peptide P532]”, the Ki in assay [2] (setting [5]) stood at 0.024 ± 0.004 nM. Also, in assay [1], the “Dose to double occlusion time” value is 0.5-1 mg/kg i.v. bolus and the “Dose to achieve patency at 60 min.” value is listed as 1-2 mg/kg i.v. bolus.
